Tests used:
[1] = molecular target: T1, A1 adenosine receptors (Rattus norvegicus, UniProt P25099); experiment: Displacement of specific [3H]R-PIA binding in rat brain membranes; conditions: for Ki: [3H]R-PIA, rat brain membranes, n = 3-5, read-out: rA1 Ki ± S.E.M.; for inhibition at 100 µM: read-out: rA1 % inhibition (percentage of specific binding displaced)
T1 construct: from tissue
T1 sequence (P25099 1-326): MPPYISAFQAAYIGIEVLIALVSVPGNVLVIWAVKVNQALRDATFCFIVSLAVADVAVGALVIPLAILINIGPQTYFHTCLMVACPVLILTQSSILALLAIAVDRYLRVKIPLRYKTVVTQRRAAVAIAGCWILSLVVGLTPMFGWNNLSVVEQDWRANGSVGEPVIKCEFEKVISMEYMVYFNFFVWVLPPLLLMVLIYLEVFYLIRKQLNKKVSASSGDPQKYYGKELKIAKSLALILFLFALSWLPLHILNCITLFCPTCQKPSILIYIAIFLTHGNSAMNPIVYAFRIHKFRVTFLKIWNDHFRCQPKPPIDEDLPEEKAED

[2] = molecular target: T2, A2A adenosine receptors (Rattus norvegicus, UniProt P30543); experiment: Displacement of specific [3H]CGS 21680 binding in rat striatal membranes; conditions: for Ki: [3H]CGS 21680, rat striatal membranes, n = 3-6, read-out: rA2A Ki ± S.E.M.; for inhibition at 100 µM: read-out: rA2A % inhibition (percentage of specific binding displaced)
T2 construct: from tissue

[3] = molecular target: T3, human A3 receptors (Homo sapiens, UniProt P0DMS8); experiment: Displacement of specific [125I]AB-MECA binding at human A3 receptors expressed in HEK cells, in membranes; conditions: for Ki: [125I]AB-MECA, HEK cell membranes, n = 3-4, read-out: hA3 Ki ± S.E.M.; for rA1/hA3: ratio of affinities rat A1 vs human A3
T3 construct: expressed in transfected cells
T3 sequence (P0DMS8 1-318): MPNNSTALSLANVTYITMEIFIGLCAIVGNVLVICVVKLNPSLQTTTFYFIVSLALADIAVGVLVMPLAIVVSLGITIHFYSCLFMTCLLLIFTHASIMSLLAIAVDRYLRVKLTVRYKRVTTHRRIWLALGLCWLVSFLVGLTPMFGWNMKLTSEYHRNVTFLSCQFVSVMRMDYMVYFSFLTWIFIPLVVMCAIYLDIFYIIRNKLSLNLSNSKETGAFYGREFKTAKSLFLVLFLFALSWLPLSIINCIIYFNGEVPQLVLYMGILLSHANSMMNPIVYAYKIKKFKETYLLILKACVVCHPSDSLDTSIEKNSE

T2 sequence (P30543 whole entry): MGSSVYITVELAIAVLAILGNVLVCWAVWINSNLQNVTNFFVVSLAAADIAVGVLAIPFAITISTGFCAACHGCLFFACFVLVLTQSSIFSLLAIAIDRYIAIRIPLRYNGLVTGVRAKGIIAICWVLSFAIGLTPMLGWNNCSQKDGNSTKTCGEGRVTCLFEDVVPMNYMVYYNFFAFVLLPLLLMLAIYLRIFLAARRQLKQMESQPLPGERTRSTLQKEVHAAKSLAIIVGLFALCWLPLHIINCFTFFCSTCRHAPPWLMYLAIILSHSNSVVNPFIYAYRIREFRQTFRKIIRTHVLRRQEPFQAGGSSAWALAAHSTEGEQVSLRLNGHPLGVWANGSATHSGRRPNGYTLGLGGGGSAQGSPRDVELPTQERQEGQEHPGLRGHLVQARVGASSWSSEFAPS

For `CCCOC(=O)C1=C(C)NC(c2ccccc2)=C(C(=O)OCC)C1C` (racemic) [Compound 60, 3-Propyl 5-ethyl 2,4-dimethyl-6-phenyl-1,4-(±)-dihydropyridine-3,5-dicarboxylate], the Ki ([1]; Table 3) was 1.74 ± 3.1 µM and the Ki ([2]; Table 3) was 28.9 ± 4.8 µM.
With `CCOC(=O)C1=C(C)NC(c2ccccc2)=C(C(=O)OCC)C1CC` (racemic) [Compound 61, 3,5-Diethyl 2-methyl-4-ethyl-6-phenyl-1,4-(±)-dihydropyridine-3,5-dicarboxylate] the Ki ([2]; Table 3) was 21.8 ± 7.8 µM.
In the case of `CCOC(=O)C1=C(c2ccccc2)NC(C)=C(C(=O)SCCOC)C1CC` (racemic) [Compound 63, 5-Ethyl 2-methyl-4-ethyl-6-phenyl-3-[(2-methoxy-(ethylsulfanylcarbonyl)]-1,4-(±)-dihydropyridine-5-carboxylate], the “rA1 % inhibition (percentage of specific binding displaced)” value ([1]; Table 3, at 10^−4 M) is reported as 36 ± 14%, the Ki ([2]; Table 3) is reported as 12.5 ± 2.5 µM and the Ki ([3]; Table 3) is reported as 4.58 ± 0.35 µM. The rA1/hA3 ([3]; Table 3) was greater than 10.
With `CCOC(=O)C1=C(C)NC(c2ccccc2)=C(C(=O)OCC)C1C(OC)OC` (racemic) [Compound 66, 3,5-Diethyl 2-methyl-6-phenyl-4-(dimethoxymethyl)-1,4-(±)-dihydropyridine-3,5-dicarboxylate] the inhibition at 100 µM ([1]; Table 3, at 10^−4 M) was 32 ± 5%, the “rA2A displacement of specific binding (class d)” value (“rA2A displacement” for short) ([2]; Table 3, at 10^−4 M) was “d (10^−4) (Displacement of < 10% of specific binding at the indicated concentration (M).)” and the Ki ([3]; Table 3) was 15.3 ± 3.9 µM. The rA1/hA3 ([3]; Table 3) was greater than 5.
For `CCOC(=O)C1=C(C)NC(c2ccccc2)=C(C(=O)OCC)C1C=O` (racemic) [Compound 67, 3,5-Diethyl 2-methyl-6-phenyl-4-formyl-1,4(±)-dihydropyridine-3,5-dicarboxylate], the inhibition at 100 µM ([1]; Table 3, at 10^−4 M) was 26 ± 6%, the inhibition at 100 µM ([2]; Table 3, at 10^−4 M) was 32 ± 15% and the Ki ([3]; Table 3) was 15.6 ± 5.4 µM. It also gave a rA1/hA3 ([3]; Table 3) greater than 6.
In the case of `CCOC(=O)C1=C(C)NC(C2CC2)=C(C(=O)OCc2ccccc2)C1C#Cc1ccccc1` (racemic) [Compound 70, 3-Ethyl 5-benzyl 2-methyl-4-phenylethynyl-6-cyclopropyl-1,4-(±)-dihydropyridine-3,5-dicarboxylate], the inhibition at 100 µM ([1]; Table 3, at 10^−4 M) is reported as 22 ± 1% and the “rA2A displacement” value ([2]; Table 3, at 10^−4 M) is reported as “d (10^−4) (Displacement of < 10% of specific binding at the indicated concentration (M).)”.
With `CCOC(=O)C1=C(C)NC(C2CCC2)=C(C(=O)OCc2ccccc2)C1C#Cc1ccccc1` (racemic) [Compound 71, 3-Ethyl 5-benzyl 2-methyl-4-phenylethynyl-6-cyclobutyl-1,4-(±)-dihydropyridine-3,5-dicarboxylate] the inhibition at 100 µM ([1]; Table 3, at 10^−4 M) was 36 ± 8% and the “rA2A displacement” value ([2]; Table 3, at 10^−4 M) was “d (10^−4) (Displacement of < 10% of specific binding at the indicated concentration (M).)”.
`CCOC(=O)C1=C(C)NC(C2CCCC2)=C(C(=O)OCc2ccccc2)C1C#Cc1ccccc1` (racemic) [Compound 72, 3-Ethyl 5-benzyl 2-methyl-4-phenylethynyl-6-cyclopentyl-1,4(±)-dihydropyridine-3,5-dicarboxylate] gave a Ki ([1]; Table 3) of 17.1 ± 4.3 µM, a Ki ([2]; Table 3) of 7.16 ± 1.56 µM and a Ki ([3]; Table 3) of 0.0505 µM. For the same compound, the rA1/hA3 ([3]; Table 3) was 340.
`CCOC(=O)C1=C(C)NC(C2CCCCC2)=C(C(=O)OCc2ccccc2)C1C#Cc1ccccc1` (racemic) [Compound 73, 3-Ethyl 5-benzyl 2-methyl-4-phenylethynyl-6-cyclohexyl-1,4-(±)-dihydropyridine-3,5-dicarboxylate] was tested, and the inhibition at 100 µM ([1]; Table 3, at 10^−4 M) was 22 ± 2% and the inhibition at 100 µM ([2]; Table 3, at 10^−4 M) was 20%.
With `CCOC(=O)C1=C(CC)NC(c2ccccc2)=C(C(=O)OCC)C1C` (racemic) [Compound 74, 3,5-Diethyl 2-ethyl-6-phenyl-4-methyl-1,4-(±)-dihydropyridine-3,5-dicarboxylate] the inhibition at 100 µM ([1]; Table 3, at 10^−4 M) was 20 ± 4% and the “rA2A displacement” value ([2]; Table 3, at 10^−4 M) was “d (10^−4) (Displacement of < 10% of specific binding at the indicated concentration (M).)”.
With `CCOC(=O)c1c(-c2ccccc2)nc(CC)c(C(=O)SCC)c1CCCN1C(=O)c2ccccc2C1=O` [Compound 5] the “rA2A displacement” value ([2]; Table 2, at 10^−4 M) was “d (10^−4) (Displacement of <10% of specific binding at the indicated concentration (M).)” and the “hA3 percentage of specific binding displaced” value ([3]; Table 2, at 10^−6 M) was 28% (10^−6).
With `CCCOC(=O)c1c(-c2ccccc2)nc(CC)c(C(=O)SCC)c1CC` [Compound 6] the “rA2A displacement” value ([2]; Table 2, at 10^−5 M) was “d (10^−5) (Displacement of <10% of specific binding at the indicated concentration (M).)” and the rA1/hA3 ([3]; Table 2) was 8.20.
In the case of `CCCCSC(=O)c1c(CC)nc(-c2cccc(Cl)c2)c(C(=O)OCCC)c1CC` [Compound 7], the “rA2A displacement” value ([2]; Table 2, at 10^−4 M) is reported as “d (10^−4) (Displacement of <10% of specific binding at the indicated concentration (M).)” and the rA1/hA3 ([3]; Table 2) is reported as 7400.
With `CCCOC(=O)c1c(-c2ccccc2)nc(CC)c(C(=O)SCCO)c1CCC` [Compound 12] the rA1/hA3 ([3]; Table 2) was 210.
`CCCOC(=O)c1c(-c2ccccc2)nc(CC)c(C(=O)SCCOC2CCCCO2)c1CCC` (stereo not shown) [Compound 13] was tested, and the “rA1 percentage of specific binding displaced” value ([1]; Table 2, at 10^−4 M) was 18 ± 1% (10^−4), the “rA2A displacement” value ([2]; Table 2, at 10^−4 M) was “d (10^−4) (Displacement of <10% of specific binding at the indicated concentration (M).)” and the rA1/hA3 ([3]; Table 2) was greater than 20.
